Reference: patent US11292781B2, “Pyrimidine tricyclic enone derivatives for inhibition of ROR-gamma and other uses” (REATA PHARMACEUTICALS, INC., priority 2016, dated 2022)

Columns and labels:
[1] = tested on: IL-17A levels in primary human CD4+ T cells differentiated into Th17 cells; assay: IL-17 release from differentiated primary human T-cells (IL-17A HTRF); assay type: cell-based; details: primary human CD4+ T cells, Th17 differentiation, 46-hour incubation; read-out: hIL17 IC50
Experimental: C. IL-17 Release from Differentiated Primary Human T-Cells and Cell Viability Primary human cryopreserved CD4+ T Cells (Lonza, donor #0000402103) were plated in Lymphocyte Growth Medium-3 (LGM-3, Lonza) according to the manufacturer's recommendations, and allowed to recover for approximately 3 hours at 37° C. with 5% CO2 in a humidified atmosphere. […] Triplicate wells were plated for each test condition. DMSO (final concentration ≤0.1%) was used as the vehicle. Immediately after plating, CD4+ T cells were activated by adding Dynabeads Human T-Activator CD3/CD28 (Life Technologies; bead-to-cell ratio of 1:2.5) and differentiated into Th17 cells by adding a mixture of the following cytokines: transforming growth factor-β (TGF-β, 5 ng/mL), IL-6 (20 ng/mL), IL-23 (20 ng/mL), and […] (10 ng/mL). Undifferentiated control cells received only cytokine IL-2 (50 ng/mL). All human recombinant cytokines were purchased from R&D Systems. Following a 46-hour incubation at 37° C. with 5% CO2 in a humidified atmosphere, the plates were centrifuged for 3 minutes at 250×g, and half of the supernatant was transferred to a new plate to be used in the IL-17A assay (see below). Cell viability was assessed in the original plate using the CyQuant Direct Assay (Life Technologies). CyQuant values from test compound samples were normalized to those from DMSO-treated samples. The concentration of IL-17A in the supernatant was measured using the Homogeneous Time-Resolved Fluorescence (HTRF) assay (Cisbio Bioassays) according to the manufacturer's protocol. The assay was performed at room temperature in low volume, solid white 384-well plates (Greiner Bio-One). […] A non-linear regression analysis with log (inhibitor) vs. normalized response using a variable slope was applied to fit the data and determine the IC50 values for inhibition of IL-17A levels and cell viability.

[2] = tested on: Nrf2 transcription factor (GST ARE luciferase reporter in AREc32 cells); assay: AREc32 luciferase reporter assay; assay type: cell-based, human; details: EC2×: concentration required to increase GST ARE luciferase reporter activity by 2-fold, 19 hours
Excerpt: A. AREc32 Luciferase Reporter Assay The AREc32 luciferase reporter assay allows for quantitative assessment of the endogenous activity of the Nrf2 transcription factor in cultured mammalian cells. AREc32 cells are derived from MCF-7 human breast carcinoma cells that were stably transfected with a reporter construct that contains the firefly luciferase gene located downstream of eight copies of the rat GSTA2 antioxidant response element (ARE) sequence (Wang et al., 2006; CXR Biosciences). Active NRF2 binds to the ARE sequences and increases expression of the firefly luciferase gene. […] Luciferase activity was determined using the ONE-Glo Luciferase assay (Promega). The luminescence signal was measured on a BMG Pherastar microplate reader. The mean luminescence value from test compound-treated wells was normalized to that from DMSO-treated wells and was represented as fold-induction. Data were analyzed using GraphPad Prism version 6.00 for Windows, GraphPad Software, La Jolla Calif. USA. A non-linear regression curve with log (agonist) vs. response using a variable slope was used to fit the data. […] EC2× values were interpolated from the curve.

Row | SMILES | IC50 [1] [nM] | HRF2 ARE 2× [2] [nM]
1 | COc1cc(-c2nc(-c3ccccc3)c3c(n2)[C@]2(C)C=C(C#N)C(=O)[C@H](C)[C@H]2CC3)ccn1 [T33] | 40 | 480
2 | Cc1ccc2nccc(-c3nc(-c4ccccc4F)c4c(n3)[C@]3(C)C=C(C#N)C(=O)[C@H](C)[C@H]3CC4)c2c1 [T73] | 69 | 407
3 | Cc1cccc2c(-c3nc(-c4ccccc4F)c4c(n3)[C@]3(C)C=C(C#N)C(=O)[C@H](C)[C@H]3CC4)ccnc12 [T68] | 31 | 253
4 | CCC[C@@]12C=C(C#N)C(=O)C[C@H]1CCc1c(-c3ccccc3F)nc(-c3ccnc4ccccc34)nc12 [T156] | 54 | 333
5 | C[C@H]1C(=O)C(C#N)=C[C@@]2(C)c3nc(-c4ccnc5ccccc45)nc(-c4ccc(F)cc4)c3CC[C@H]12 [T40] | 63 | 273
6 | Cc1ccc(-c2nc(-c3ccnc4ccccc34)nc3c2CC[C@@H]2[C@@H](C)C(=O)C(C#N)=C[C@@]32C)o1 [T104] | 86 | 293
7 | C[C@H]1C(=O)C(C#N)=C[C@@]2(C)c3nc(-c4cncc5ccccc45)nc(-c4ccccc4F)c3CC[C@H]12 [T66] | 39 | 190
8 | C[C@H]1C(=O)C(C#N)=C[C@@]2(C)c3nc(-c4ccnc5ccccc45)nc(-c4ccccc4F)c3CC[C@@H]12 [T176] | 455 | >2000
9 | Cc1cc(-c2nc(-c3ccccc3F)c3c(n2)[C@]2(C)C=C(C#N)C(=O)[C@H](C)[C@H]2CC3)c2cc(F)ccc2n1 [T85] | 38 | 307
10 | Cc1nc(-c2nc(-c3ccccc3F)c3c(n2)[C@]2(C)C=C(C#N)C(=O)[C@H](C)[C@H]2CC3)no1 [T71] | 198 | 780
11 | CC1=C2CCc3c(-c4ccccc4F)nc(-c4ccnc5ccccc45)nc3[C@]2(C)C=C(C#N)C1=O [T38] | 374 | >2000
12 | Cc1noc(C)c1-c1nc(-c2ccccc2F)c2c(n1)[C@]1(C)C=C(C#N)C(=O)[C@H](C)[C@H]1CC2 [T87] | 109 | 245
13 | C[C@H]1C(=O)C(C#N)=C[C@@]2(C)c3nc(-c4ccnc(CCC(N)=O)c4)nc(-c4ccccc4F)c3CC[C@H]12 [T177] | – | 491
14 | C[C@H]1C(=O)C(C#N)=C[C@@]2(C)c3nc(-c4ccc(C(F)(F)F)cc4)nc(-c4ccccc4)c3CC[C@H]12 [T20] | – | 608
15 | Cc1ccc(S(=O)(=O)Oc2nc(-c3ccncc3)nc3c2CC[C@@H]2[C@@H](C)C(=O)C(C#N)=C[C@@]32C)cc1 [T18] | – | 381
16 | C[C@H]1C(=O)C(C#N)=C[C@@]2(C)c3ncnc(-c4ccccc4)c3CC[C@H]12 [T22] | – | 90
17 | Cc1cc(-c2nc(-c3ccc(F)cc3)c3c(n2)[C@]2(C)CC(C#N)C(=O)[C@H](C)[C@H]2CC3)ccn1 (some centres unmarked) [T187] | – | >2000
18 | C[C@H]1C(=O)C(C#N)=C[C@@]2(C)c3nc(-c4ccncc4)nc(-c4ccc(Cl)cc4)c3CC[C@H]12 [T28] | – | 141
19 | C[C@H]1C(=O)[C@@]2(C#N)O[C@H]2[C@@]2(C)c3nc(-c4ccnc5cc(F)ccc45)nc(-c4ccccc4F)c3CC[C@H]12 [T129] | – | 697
20 | C[C@H]1C(=O)C(C#N)=C[C@@]2(C)c3nc(-c4ccnc(CF)c4)nc(-c4ccccc4F)c3C[C@H]12 [T171] | – | 1474
21 | C=CC[C@H]1C(=O)C(C#N)=C[C@@]2(C)c3nc(-c4ccnc(C5CC5)c4)nc(-c4ccccc4F)c3CC[C@H]12 [T145] | – | 337
22 | COC(=O)[C@@]1(C)C(=O)C=C[C@@]2(C)c3nc(-c4ccncc4)nc(OC)c3CC[C@H]12 [T135] | – | >2000
23 | C[C@H]1C(=O)[C@@]2(C#N)O[C@H]2[C@@]2(C)c3nc(-c4ccncc4)nc(-c4ccccc4)c3CC[C@H]12 [T15] | – | 738
24 | C[C@H]1C(=O)C(C#N)=C[C@@]2(C)c3nc(-c4ccccc4F)nc(-c4ccccc4F)c3CC[C@H]12 [T81] | – | 705
25 | COc1nc(-c2ccncc2C)nc2c1CC[C@@H]1[C@@H](C)C(=O)C(C#N)=C[C@@]21C [T4] | – | 449

Row | SMILES | IC50 [1] [nM] | HRF2 ARE 2× [2] [nM]
26 | C[C@H]1C(=O)C(C#N)=C[C@@]2(C)c3nc(-c4ccnc5ccccc45)nc(-c4ccccc4F)c3CC[C@H]12 [T37] | – | 351
27 | C[C@H]1C(=O)C(C#N)=C[C@@]2(C)c3nc(N)nc(-c4ccccc4)c3CC[C@H]12 [T34] | – | 469
28 | C[C@H]1C(=O)C(C#N)=C[C@@]2(C)c3nc(-c4ccncc4)nc(-c4ccccc4)c3CC[C@H]12 [T14] | – | 281
29 | Cc1cc(-c2nc(-c3ccccc3F)c3c(n2)[C@]2(C)C=C(C#N)C(=O)[C@H](C)[C@H]2C3)c2cccc(F)c2n1 [T172] | – | 998
30 | C[C@H]1C(=O)C(C#N)=C[C@@]2(C)c3nc(-c4ccccc4)nc(-c4ccccc4)c3CC[C@H]12 [T19] | – | 741
31 | C[C@H]1C(=O)C(C#N)=C[C@@]2(C)c3nc(-c4ccncc4)nc(-c4cccnc4)c3CC[C@H]12 [T25] | – | 449
32 | CC(=O)N1CCN(c2nc(-c3ccccc3F)c3c(n2)[C@]2(C)C=C(C#N)C(=O)[C@H](C)[C@H]2CC3)CC1 [T139] | – | 222
33 | C[C@H]1C(=O)C(C#N)=C[C@@]2(C)c3nc(-c4ccncc4)nc(-c4ccncc4)c3CC[C@H]12 [T29] | – | 484
34 | C[C@H]1C(=O)C(C#N)=C[C@@]2(C)c3nc(-c4ccnc(CO)c4)nc(-c4ccccc4F)c3CC[C@H]12 [T82] | – | 480
35 | Cc1cc(-c2nc(-c3ccccc3)c3c(n2)[C@]2(C)C=C(C#N)C(=O)[C@H](C)[C@H]2CCC3)ccn1 [T182] | – | 892
36 | C[C@H]1C(=O)C(C#N)=C[C@@]2(C)c3nc(-c4cn(C)c5ncccc45)nc(-c4ccccc4F)c3CC[C@H]12 [T72] | – | 374
37 | COc1cc(-c2nc(OC)c3c(n2)[C@]2(C)C=C(C#N)C(=O)[C@H](C)[C@H]2CC3)ccn1 [T2] | – | 247
38 | Cc1cc(-c2nc(-c3ccc(F)cc3)c3c(n2)[C@]2(C)C=C(C#N)C(=O)[C@H](C)[C@H]2CC3)ccn1 [T50] | – | 256
39 | C[C@H]1C(O)=C(C#N)C[C@@]2(C)c3nc(-c4ccncc4)nc(-c4ccccc4)c3CC[C@H]12 [T13] | – | >2000
40 | COc1nc(-c2ccnc(C)c2)nc2c1CC[C@@H]1[C@@H](C)C(=O)C(C#N)=C[C@@]21C [T3] | – | 232
41 | C[C@H]1C(=O)C(C#N)=C[C@@]2(C)c3nc(NC(=O)C4CCCCC4)nc(-c4ccccc4)c3CC[C@H]12 [T35] | – | 575
42 | CC[C@@]1(C)C(=O)C(C#N)=C[C@@]2(C)c3nc(-c4ccnc(C5CC5)c4)nc(-c4ccccc4F)c3CC[C@H]12 [T181] | – | 518
43 | Cc1ccc(-c2nc(-c3ccncc3)nc3c2CC[C@@H]2[C@@H](C)C(=O)C(C#N)=C[C@@]32C)cc1 [T27] | – | 181
44 | Cc1cc(-c2nc(-c3ccc(F)cc3)c3c(n2)[C@]2(C)C=C(C(N)=O)C(=O)[C@H](C)[C@H]2CC3)ccn1 [T184] | – | 1832
45 | COc1ccc(-c2nc(-c3ccncc3)nc3c2CC[C@@H]2[C@@H](C)C(=O)C(C#N)=C[C@@]32C)cc1 [T30] | – | 136
46 | Cc1ccc(-c2nc(-c3ccccc3F)c3c(n2)[C@]2(C)C=C(C#N)C(=O)[C@H](C)[C@H]2CC3)cn1 [T88] | – | 177
47 | Cc1cnccc1-c1nc(-c2ccccc2F)c2c(n1)[C@]1(C)C=C(C#N)C(=O)[C@H](C)[C@H]1CC2 [T56] | – | 193
48 | Cc1cc(-c2nc(-c3ccccc3F)c3c(n2)[C@]2(C)C=C(C#N)C(=O)[C@H](C)[C@H]2CC3)ccn1 [T51] | – | 364
49 | CC1(C)C(=O)C(C#N)=C[C@@]2(C)c3nc(-c4ccnc5ccccc45)nc(-c4ccccc4F)c3CC[C@H]12 [T118] | – | 395
50 | COc1nc(-c2ccncc2)nc2c1CC[C@@H]1[C@@H](C)C(=O)C=C[C@@]21C [T134] | – | 3137
